US10414713B2, “Fatty acid compound, preparation method therefor and use therefor” (SHANGHAI INSTITUTE OF MATERIA MEDICA, CHINESE ACADEMY OF …, priority 2016, dated 2019)

Test system: primary hepatocytes of C57bl/6j mice
Test: Glucose output in primary hepatocytes of C57bl/6j mice
Assay type: cell-based
Conditions: Hepatocyte, 6 hours, mouse primary hepatocytes, corrected by protein concentration, FIG. 3, read-out: gluconeogenesis inhibition (glucose output) relative to the negative control
Experimental: 2. To Investigate the Effect of Compounds on Glucose Output in Primary Hepatocytes of C57bl/6j Mice.
(1) Test purpose: To test whether the fatty acid compounds can inhibit hepatocyte glucose output on primary hepatocytes of C57bl/6j mice.
(2) Experimental principle: Small molecule compounds act on mouse primary hepatocytes, inhibit gluconeogenesis, and then affect the glucose output of cells into the medium. The effect of compounds on gluconeogenesis is evaluated by detecting the glucose concentration in the medium after the treatment of different compounds.
(3) Detection reagent: The glucose detection kit was purchased from Shanghai Mind Bioengineering Co., Ltd.
1) the primary hepatocytes of C57bl/6j mice were isolated and inoculated into a 24-well plate at a density of 300,000 per mL. After grew adhering to the wall for 6 hours, they were replaced on serumfree highsugar medium for 12 hours. Compounds 1 to 30 prepared by the present invention (in 1‰ DMSO, 50 μM) were separately added to treat for 6 hours (1‰ DMSO as a negative control). The medium was gently mixed, 50 μL of supernatant was taken from every well, and glucose concentration was measured by a glucose oxidase assay kit.
2) The medium was discarded. The cells was washed with PBS, spin dried, added 200 μL of 250 mM sodium hydroxide solution. […] The protein concentration was determined using coomassie blue staining. […]

CCC(C)(CCCCCCC=CCCCCCCCC(C)(CC)C(=O)O)C(=O)O (stereo not shown) [Compound 20]
inhibition at 50 µM: > 50%
